Patent US20080032950A1, “Neurologically-Active Compounds” (The University of Sydney, priority 2004, published 2008)
Read-outs that look alike come from different tables or passages of the source. Values belong to the compound of their own block, whether it stands above or below them.

Assays:
[1] = target: T1, GABAB (GB1) (Homo sapiens, UniProt Q9UBS5); assay: Two-electrode voltage clamp on GABAB receptors expressed in Xenopus oocytes; assay type: cell-based; details: for GABAB (GB1) activity (type of action): voltage clamp -60 mV
T1 construct: expressed in transfected cells; host or cells: Xenopus laevis oocytes injected with mRNA
T1 sequence (Q9UBS5 20-961, species assumed): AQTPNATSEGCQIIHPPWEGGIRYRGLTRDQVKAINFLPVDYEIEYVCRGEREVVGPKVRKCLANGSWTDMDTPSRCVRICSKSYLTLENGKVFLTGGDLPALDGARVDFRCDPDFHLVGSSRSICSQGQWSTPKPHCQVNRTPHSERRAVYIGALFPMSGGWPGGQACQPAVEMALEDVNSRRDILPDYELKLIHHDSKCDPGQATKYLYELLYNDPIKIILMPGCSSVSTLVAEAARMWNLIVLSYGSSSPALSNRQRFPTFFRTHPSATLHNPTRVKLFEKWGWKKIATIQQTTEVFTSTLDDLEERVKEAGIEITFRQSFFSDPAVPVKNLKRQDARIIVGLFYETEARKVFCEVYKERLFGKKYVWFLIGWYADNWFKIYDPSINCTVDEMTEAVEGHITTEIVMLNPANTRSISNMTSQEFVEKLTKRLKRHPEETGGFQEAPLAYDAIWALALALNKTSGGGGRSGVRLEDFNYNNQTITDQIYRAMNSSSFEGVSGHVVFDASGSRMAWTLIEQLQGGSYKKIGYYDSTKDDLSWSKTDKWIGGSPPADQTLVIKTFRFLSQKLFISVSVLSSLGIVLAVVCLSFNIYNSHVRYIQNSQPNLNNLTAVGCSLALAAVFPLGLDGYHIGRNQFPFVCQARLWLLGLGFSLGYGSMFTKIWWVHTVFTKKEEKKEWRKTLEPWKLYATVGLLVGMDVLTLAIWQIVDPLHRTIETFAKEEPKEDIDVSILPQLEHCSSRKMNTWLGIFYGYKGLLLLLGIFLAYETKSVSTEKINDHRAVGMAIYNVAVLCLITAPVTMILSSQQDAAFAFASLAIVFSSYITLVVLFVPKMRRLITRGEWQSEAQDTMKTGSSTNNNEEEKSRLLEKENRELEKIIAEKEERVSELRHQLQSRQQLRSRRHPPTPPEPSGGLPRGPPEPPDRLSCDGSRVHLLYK
T1 sequence (O75899 42-941 partner, species assumed): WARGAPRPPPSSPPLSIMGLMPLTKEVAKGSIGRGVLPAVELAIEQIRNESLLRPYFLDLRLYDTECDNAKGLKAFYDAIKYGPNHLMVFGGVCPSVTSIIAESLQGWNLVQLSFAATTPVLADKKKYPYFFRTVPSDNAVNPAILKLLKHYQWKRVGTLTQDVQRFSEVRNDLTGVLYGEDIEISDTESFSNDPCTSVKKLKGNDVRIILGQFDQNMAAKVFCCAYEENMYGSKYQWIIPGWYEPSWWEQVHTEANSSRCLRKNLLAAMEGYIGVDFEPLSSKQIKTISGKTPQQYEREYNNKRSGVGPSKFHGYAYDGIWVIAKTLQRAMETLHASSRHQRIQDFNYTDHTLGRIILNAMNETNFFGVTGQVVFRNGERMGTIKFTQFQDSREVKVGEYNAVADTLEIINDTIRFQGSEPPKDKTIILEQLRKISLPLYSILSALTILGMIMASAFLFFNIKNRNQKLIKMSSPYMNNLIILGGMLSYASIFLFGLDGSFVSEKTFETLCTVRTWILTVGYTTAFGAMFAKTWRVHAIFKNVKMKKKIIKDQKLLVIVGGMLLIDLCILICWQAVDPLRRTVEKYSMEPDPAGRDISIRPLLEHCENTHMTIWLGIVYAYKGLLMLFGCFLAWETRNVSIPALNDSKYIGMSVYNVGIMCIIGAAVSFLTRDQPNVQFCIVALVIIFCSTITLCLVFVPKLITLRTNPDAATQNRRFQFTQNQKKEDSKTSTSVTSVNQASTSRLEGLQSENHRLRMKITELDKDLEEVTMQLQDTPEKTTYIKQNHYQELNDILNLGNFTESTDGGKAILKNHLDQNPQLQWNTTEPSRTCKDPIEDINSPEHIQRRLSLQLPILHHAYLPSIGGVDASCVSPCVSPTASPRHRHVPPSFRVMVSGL
Method: (§1) The activity of compounds (15), (16), (17), (18) and (19) on GABA receptor sub-types were determined as described in Chebib, M., Mewett, K. N., Johnston, G. A. R., 1998, “GABAC receptor antagonists differentiate between human ρ1 and ρ2 receptors expressed in Xenopus oocytes”, European Journal of Pharmacology 357, 227-234.
(§2) In this method, oocytes were harvested from Xenopus laevis and defolliculated. The oocytes were then stored in ND96 solution (96 mM NaCl, 2 mM KCl, 1.8 mM CaCl2.2H2O, 1 mM MgCl2.6H2O, 5 mM HEPES (hemi-Na), pH 7.5) supplemented with 2.5 mM sodium pyruvate, 0.5 mM theophylline and 50 μgml^−1 gentamycin. The storage solution was changed daily.
(§3) Stage V-VI oocytes were injected with mRNA (10 ng/50 nl) and then stored at 16° C. Recordings of receptor activity were obtained after two to eight days by a two-electrode voltage clamp by means of a Geneclamp 500 amplifier (Axon Instruments Inc., Foster City, Calif.), a MacLab 2e recorder (AD Instruments, Sydney, NSW) and Chart version 3.6.3 program. Oocytes were voltage clamped at −60 mV and the preparation was continually perfused with ND96 solution at room temperature. Known concentrations of agonists and antagonists dissolved in ND96 were applied in the absence and presence of GABA respectively until maximum current was reached, at which time the oocyte was washed for five to ten minutes to allow complete recovery of response to a known dose of GABA. In the case of antagonists, two dose response curves were conducted on the same cell to enable calculation of single point estimates: a GABA dose-response curve and a GABA dose-response curve in the presence of a known concentration of antagonist. All compounds were tested on oocytes from at least three harvests.

[2] = target: T2, GABAA (α1β2γ2L) (Homo sapiens, UniProt P14867+P47870); assay: Two-electrode voltage clamp on GABAA receptors expressed in Xenopus oocytes; assay type: cell-based; details: for GABAA (α1β2γ2L) activity (type of action): Xenopus oocytes, voltage clamp -60 mV
T2 construct: expressed in transfected cells; host or cells: Xenopus laevis oocytes injected with mRNA
T2 sequence (P14867 28-456): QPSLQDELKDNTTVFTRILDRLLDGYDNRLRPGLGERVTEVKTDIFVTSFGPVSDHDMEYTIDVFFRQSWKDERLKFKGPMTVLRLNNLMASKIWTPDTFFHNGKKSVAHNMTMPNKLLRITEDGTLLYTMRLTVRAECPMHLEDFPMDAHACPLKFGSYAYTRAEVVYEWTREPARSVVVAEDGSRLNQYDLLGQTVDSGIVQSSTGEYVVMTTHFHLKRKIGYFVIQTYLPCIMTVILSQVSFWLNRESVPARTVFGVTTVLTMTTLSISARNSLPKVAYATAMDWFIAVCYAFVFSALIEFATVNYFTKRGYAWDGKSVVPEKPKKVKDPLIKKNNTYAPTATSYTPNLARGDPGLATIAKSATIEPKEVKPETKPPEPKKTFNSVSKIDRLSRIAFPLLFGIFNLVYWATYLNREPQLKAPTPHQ
T2 sequence (P47870 25-512 limits assumed): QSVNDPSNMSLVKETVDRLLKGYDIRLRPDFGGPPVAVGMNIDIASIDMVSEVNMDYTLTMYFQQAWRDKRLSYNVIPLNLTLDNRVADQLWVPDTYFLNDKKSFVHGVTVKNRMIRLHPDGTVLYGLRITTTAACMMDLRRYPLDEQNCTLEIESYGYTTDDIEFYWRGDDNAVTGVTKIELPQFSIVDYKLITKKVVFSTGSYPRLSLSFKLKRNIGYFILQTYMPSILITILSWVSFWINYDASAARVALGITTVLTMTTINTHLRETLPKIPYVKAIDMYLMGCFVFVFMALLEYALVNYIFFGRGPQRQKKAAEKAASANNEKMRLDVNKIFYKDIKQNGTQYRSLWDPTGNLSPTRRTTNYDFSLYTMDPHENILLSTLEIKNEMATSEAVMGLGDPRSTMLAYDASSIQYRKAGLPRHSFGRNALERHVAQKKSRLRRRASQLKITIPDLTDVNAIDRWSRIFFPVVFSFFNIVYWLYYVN
T2 sequence (P18507 40-475 partner): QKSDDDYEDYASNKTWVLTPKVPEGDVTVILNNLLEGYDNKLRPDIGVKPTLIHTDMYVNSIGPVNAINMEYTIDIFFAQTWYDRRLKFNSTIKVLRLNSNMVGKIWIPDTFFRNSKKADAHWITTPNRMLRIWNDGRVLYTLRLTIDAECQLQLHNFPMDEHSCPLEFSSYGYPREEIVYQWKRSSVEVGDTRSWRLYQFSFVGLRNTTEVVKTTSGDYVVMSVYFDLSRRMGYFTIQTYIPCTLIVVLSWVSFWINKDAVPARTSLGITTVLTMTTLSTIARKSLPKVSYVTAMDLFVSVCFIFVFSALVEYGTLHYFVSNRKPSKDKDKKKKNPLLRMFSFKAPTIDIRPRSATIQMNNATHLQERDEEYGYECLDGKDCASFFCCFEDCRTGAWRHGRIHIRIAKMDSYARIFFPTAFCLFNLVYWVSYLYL
Method: as §1, §2, §3

[3] = target: T3, GABAC (ρ1) (Homo sapiens, UniProt P24046); assay: Two-electrode voltage clamp on ρ1 GABAC receptors expressed in Xenopus oocytes; assay type: cell-based; details: for Selectivity (receptor subtype preferred): among GABAA, GABAB, GABAC; for Selectivity (fold): for GABAC over GABAA and GABAB
T3 construct: expressed in transfected cells; host or cells: Xenopus laevis oocytes injected with mRNA
T3 sequence (P24046 22-479): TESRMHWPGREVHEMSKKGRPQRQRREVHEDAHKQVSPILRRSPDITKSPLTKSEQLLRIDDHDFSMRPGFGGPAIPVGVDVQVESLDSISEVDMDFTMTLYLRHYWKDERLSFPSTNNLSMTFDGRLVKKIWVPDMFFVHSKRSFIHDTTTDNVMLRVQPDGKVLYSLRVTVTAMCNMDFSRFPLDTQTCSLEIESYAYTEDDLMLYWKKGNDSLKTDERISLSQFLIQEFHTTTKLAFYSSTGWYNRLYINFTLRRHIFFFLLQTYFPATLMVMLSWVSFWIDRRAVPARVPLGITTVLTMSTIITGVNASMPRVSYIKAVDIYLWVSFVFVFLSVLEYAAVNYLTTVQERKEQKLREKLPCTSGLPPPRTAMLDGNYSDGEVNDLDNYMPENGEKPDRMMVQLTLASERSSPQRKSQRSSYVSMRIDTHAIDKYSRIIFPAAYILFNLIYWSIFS
Method: as §1, §2, §3
The activity of this compound on the GABA receptor sub-types was determined by the same procedure as described in Example 2 for compounds (15) to (19). (±)-3-Aminocyclopente-1-nyl)methylphosphinic acid (200 μM) had no effect alone on ρ1 GABAC receptors but in the presence of 1 μM GABA inhibited the response by 65%.

[4] = target: GABAC receptors; details: antagonist; Woodward et al, 1993; cited from earlier work
[5] = target: GABAC receptor (Homo sapiens, UniProt P24046); details: cited from earlier work
Sequence of GABAC receptor (P24046 22-479): as above

[6] = Xenopus oocytes, voltage clamp -60 mV

Compound: CC(C)P(=O)(O)C1=CCC(N)C1 (racemic) [Compound 17, (±)-(4-Aminocyclopent-1-enyl)isopropylphosphinic acid]
IC50 [1]: > 300 µM
GABAB (GB1) activity (type of action) ([1]; Xenopus oocytes): Antagonist
IC50 [2]: > 600 µM
GABAA (α1β2γ2L) activity (type of action) [2]: Antagonist
IC50 [3]: 6.34 µM
GABAC (ρ1) activity (type of action) [3, 6]: Antagonist
Selectivity (receptor subtype preferred) [3]: GABAC
Selectivity (fold) [3]: ˜50x

Compound: NCCCP(=O)(O)O [Compound 3-APA, 3-aminopropylphosphonic acid]
Kb [4]: 1.8 µM

Compound: (1,2,5,6-tetrahydropyridine-4-yl)methylphosphinic acid [TPMPA]
Kb ([5]; antagonist, Murata et al, 1996, Ragozzinno et al, 1996, read-out: KB at GABAC receptors): 2.1 µM
IC50 ([5]; read-out: Concentration producing 50% inhibition of GABAC receptor activation): 2.1 µM

GABAB (GB1) effect ([1]; at ~300 μM, Xenopus oocytes): (No effect ˜ 300 μM)
GABAA (α1β2γ2L) activity (type of action) [2]: Antagonist
GABAC (ρ1) activity (type of action) [3, 6]: Antagonist
IC50 ([3]; Xenopus oocytes, voltage clamp -60 mV, read-out: GABAC (ρ1) IC50): > 300 µM
Compound: NC1CC=C(P(=O)(O)Cc2ccccc2)C1 (racemic) [Compound 19, (±)-(4-Aminocyclopent-1-enyl)benzylphosphinic acid]

Compound: CCP(=O)(O)C1=CCC(N)C1 (racemic) [Compound 16, (±)-(4-Aminocyclopent-1-enyl)ethylphosphinic acid]
IC50 [1]: > 300 µM
GABAB (GB1) activity (type of action) ([1]; Xenopus oocytes): Antagonist
IC50 [2]: > 600 µM
GABAA (α1β2γ2L) activity (type of action) [2]: Antagonist
GABAC (ρ1) activity (type of action) [3, 6]: Antagonist
Selectivity (receptor subtype preferred) [3]: GABAC
Selectivity (fold) [3]: ˜25x

Compound: CP(=O)(O)C1=CCC(N)C1 (racemic) [Compound 15, (±)-(4-Aminocyclopent-1-enyl)methylphosphinic acid]
GABAB (GB1) activity (type of action) ([1]; Xenopus oocytes): Partial Agonist
IC50 [2]: > 300 µM
GABAA (α1β2γ2L) activity (type of action) [2]: Antagonist
GABAC (ρ1) activity (type of action) [3, 6]: Antagonist
Selectivity (receptor subtype preferred) [3]: GABAC
Selectivity (fold) [3]: ˜50x

Compound: NCCC[PH](=O)O [CGP27492, 3-aminopropylphosphinic acid]
Kb [4]: 0.8 µM

Compound: CCCCP(=O)(O)C1=CCC(N)C1 (racemic) [Compound 18, (±)-(4-Aminocyclopent-1-enyl)butylphosphinic acid]
IC50 [1]: ~300 µM
GABAB (GB1) activity (type of action) ([1]; Xenopus oocytes): Antagonist
IC50 [2]: > 300 µM
GABAA (α1β2γ2L) activity (type of action) [2]: Antagonist
GABAC (ρ1) activity (type of action) [3, 6]: Antagonist
Selectivity (receptor subtype preferred) [3]: GABAC
Selectivity (fold) [3]: ˜100x

Compound: CP(=O)(O)CCCN [CGP35024, (3-aminopropyl)methylphosphinic acid]
Kb [4]: 0.8 µM
